Laboratory results reported in US10544112B2, “Identification of ebsulfur analogues with broad-spectrum antifungal activity” (priority 2017, dated 2020).
Converted amounts (≈) assume the structure as drawn.

Tests used:
[1] = system: C. albicans ATCC 64124 (strain B); assay: microbe, parasite or virus in culture; assay type: cell-based, Candida albicans; settings: strain B; compounds 1-4n and AmB; 48 h, RPMI 1640
Description: (§1) Fungal MIC determination experiments were performed using untreated 96-well plates (Corning). Cells were counted either by using a hemocytometer (Hausser Scientific, Horsham, Pa., USA) or by measuring optical density at attenuance of 600 nm (OD600) by using a Genesys 20 spectrophotometer (Thermo Scientific, Waltham, Mass., USA). Spectrophotometric and colorimetric measurements in 96-well plates were performed using a SpectraMax M5 spectrometer (Molecular Devices, Sunnyvale, Calif., USA).
(§2) Yeast strains Candida albicans ATCC 10231 (strain A), C. albicans ATCC 64124 (strain B), and C. albicans ATCC MYA-2876(S) (strain C) were kindly provided by Dr. Jon Y. Takemoto (Utah State University, Logan, UT, USA). C. albicans ATCC MYA-90819(R) (strain D), C. albicans ATCC MYA-2310(S) (strain E), C. albicans ATCC 1237(R) (strain F), C. albicans ATCC MYA-1003(R) (strain G), Candida glabrata ATCC 2001 (strain H), Candida krusei ATCC 6258 (strain I), and Candida parapsilosis ATCC 22019 (strain J) were obtained from the American Type Culture Collection (ATCC, Manassas, Va., USA). The (S) and (R) indicate that ATCC reports these strains to be susceptible (S) and resistant (R) to ITC and FLC. The filamentous fungal strains Aspergillus flavus ATCC MYA-3631 (strain K), and Aspergillus terreus ATCC MYA-3633 (strain M) were also obtained from the American Type Culture Collection (ATCC, Manassas, Va., USA). Aspergillus nidulans ATCC 38163 (strain L) was kindly provided by Dr. Jon S. Thorson (University of Kentucky, Lexington, Ky., USA), respectively. Yeast strains were cultured at 35° C. Filamentous fungal strains were cultured at 25° C. and the spores were harvested. All fungal strains were cultured in RPMI 1640 medium (catalog # R6504, Sigma-Aldrich Chemical Co., St. Louis, Mo.) buffered to pH 7.0 with 0.165 M morpholinepropanesulfonic acid (MOPS) buffer (Sigma-Aldrich Chemical Co.).
(§3) The MIC values against fungal strains were determined based on a previously published protocol. MIC values for ebsulfur (2a) analogues against fungal cells were evaluated in 96-well plates as described in the CLSI document M27-A3 with minor modifications. […] Therefore, potato dextrose broth (PDB) was used to grow the yeast inocula of all strains tested, which were later diluted in RPMI 1640 medium to perform determination of MIC values. […] The tested compounds (10 mg/mL) were diluted to the working stocks (500 μg/mL) by addition of DMSO. Two-fold serial dilution of the working stocks was prepared by addition of RPMI 1640 medium (100 μL) and cell suspension (100 μL) to 96-well microtiter plate to achieve final drug and inoculum concentrations ranging from 12.5-0.02 μg/mL and 5×10^3 CFU/mL, respectively. Plates were incubated for 48 h at 35° C. […]

[2] = system: C. albicans ATCC MYA-1237(R) (strain F); assay: microbe, parasite or virus in culture; assay type: cell-based, Candida albicans; settings: strain F; compounds 1-4n and AmB; 48 h, RPMI 1640
Description: as §1, §2, §3

[3] = system: C. albicans ATCC MYA-1003(R) (strain G); assay: microbe, parasite or virus in culture; assay type: cell-based, Candida albicans; settings: strain G; compounds 1-4n and AmB; 48 h, RPMI 1640
Description: as §1, §2, §3

[4] = system: C. albicans ATCC 90819(R) (strain D); assay: microbe, parasite or virus in culture; assay type: cell-based, Candida albicans; settings: strain D; compounds 1-4n and AmB; 48 h, RPMI 1640
Description: as §1, §2, §3

[5] = system: Candida glabrata ATCC 2001 (strain H); assay: Antifungal MIC determination (CLSI M27-A3, 96-well); assay type: cell-based; settings: strain H; compounds 1-4n and AmB; 48 h, RPMI 1640
Description: as §1, §2, §3

[6] = system: Candida krusei ATCC 6258 (strain I); assay: as above; assay type: cell-based; settings: strain I; compounds 1-4n and AmB; 48 h, RPMI 1640
Description: as §1, §2, §3

[7] = system: Candida albicans ATCC 10231 (strain A); assay: as above; assay type: cell-based; settings: strain A; compounds 1-4n and AmB; 48 h, RPMI 1640
Description: as §1, §2, §3

[8] = system: Candida parapsilosis ATCC 22019 (strain J); assay: as above; assay type: cell-based; settings: strain J; compounds 1-4n and AmB; 48 h, RPMI 1640
Description: as §1, §2, §3

[9] = system: Aspergillus nidulans ATCC 38163 (strain L); assay: Antifungal MIC determination, filamentous fungi spores; assay type: cell-based; settings: strain L; spores
Description: as §1, §2
(§4) The MIC values against fungal strains were determined based on a previously published protocol. MIC values for ebsulfur (2a) analogues against fungal cells were evaluated in 96-well plates as described in the CLSI document M27-A3 with minor modifications. […] Therefore, potato dextrose broth (PDB) was used to grow the yeast inocula of all strains tested, which were later diluted in RPMI 1640 medium to perform determination of MIC values. […] The tested compounds (10 mg/mL) were diluted to the working stocks (500 μg/mL) by addition of DMSO. Two-fold serial dilution of the working stocks was prepared by addition of RPMI 1640 medium (100 μL) and cell suspension (100 μL) to 96-well microtiter plate to achieve final drug and inoculum concentrations ranging from 12.5-0.02 μg/mL and 5×10^3 CFU/mL, respectively. Plates were incubated for 48 h at 35° C.
(§5) MIC assays for the spore-forming filamentous fungi, such as strain A. flavus ATCC MYA-3631 (strain K), were performed in a similar fashion. The filamentous fungal strains were first cultured at 25° C. on potato dextrose agar (PDA) plates for 3-5 days or until confluent. Spores were collected by washing the surface of the agar plates with dd H2O (5 mL) and then isolated the spores by gravity filtration (the spores are H2O soluble). […] Researchers working with spores should wear a facemask to prevent spore inhalation.

[10] = system: Aspergillus flavus ATCC MYA-3631 (strain K); assay: as above; assay type: cell-based; settings: all compounds
Description: as §1, §2, §4, §5

[11] = system: Aspergillus terreus ATCC MYA-3633 (strain M); assay: as above; assay type: cell-based; settings: strain M; all compounds; spores
Description: as §1, §2, §4, §5

[12] = system: C. albicans ATCC MYA-2310(S) (strain E); assay: Antifungal MIC determination (CLSI M27-A3, 96-well); assay type: cell-based, Candida albicans; settings: strain E; compounds 1-4n and AmB; 48 h, RPMI 1640
Description: as §1, §2, §3

[13] = system: C. albicans ATCC MYA-2876(S) (strain C); assay: as above; assay type: cell-based, Candida albicans; settings: strain C; compounds 1-4n and AmB; 48 h, RPMI 1640
Description: as §1, §2, §3

Row | Compound | MIC-0 [1] [µg/mL] | MIC-0 [2] [µg/mL] | MIC-0 [3] [µg/mL] | MIC-0 [4] [µg/mL] | MIC-0 [5] [µg/mL] | MIC-0 [6] [µg/mL] | MIC-0 [7] [µg/mL] | MIC-0 [8] [µg/mL] | MIC-0 [9] [µg/mL] | MIC-0 [10] [µg/mL] | MIC-0 [11] [µg/mL] | MIC-0 [12] [µg/mL] | MIC-0 [13] [µg/mL]
1 | COc1cc(OC)cc(-n2sc3ccccc3c2=O)c1 [Compound 2k] | 12.5 (≈ 43.5 µM) | 12.5 (≈ 43.5 µM) | 12.5 (≈ 43.5 µM) | 3.13 (≈ 10.9 µM) | 6.25 (≈ 21.8 µM) | 6.25 (≈ 21.8 µM) | 12.5 (≈ 43.5 µM) | 6.25 (≈ 21.8 µM) | 6.25 (≈ 21.8 µM) | 6.25 (≈ 21.8 µM) | 6.25 (≈ 21.8 µM) | 1.56 (≈ 5.43 µM) | 3.13 (≈ 10.9 µM)
2 | O=c1c2ccccc2sn1C1CCCCCC1 [Compound 3m] | 1.56 (≈ 6.31 µM) | 1.56 (≈ 6.31 µM) | 3.13 (≈ 12.7 µM) | 1.56 (≈ 6.31 µM) | 3.13 (≈ 12.7 µM) | 0.39 (≈ 1.58 µM) | 1.56 (≈ 6.31 µM) | 3.13 (≈ 12.7 µM) | 0.20 (≈ 0.809 µM) | 0.10 (≈ 0.404 µM) | 0.20 (≈ 0.809 µM) | 3.13 (≈ 12.7 µM) | 3.13 (≈ 12.7 µM)
3 | O=c1c2ccccc2sn1-c1ccc(F)cc1 [Compound 2b] | 6.25 (≈ 25.5 µM) | 6.25 (≈ 25.5 µM) | 1.56 (≈ 6.36 µM) | 3.13 (≈ 12.8 µM) | 6.25 (≈ 25.5 µM) | 3.13 (≈ 12.8 µM) | 3.13 (≈ 12.8 µM) | 12.5 (≈ 51 µM) | 12.5 (≈ 51 µM) | 6.25 (≈ 25.5 µM) | 12.5 (≈ 51 µM) | 3.13 (≈ 12.8 µM) | 3.13 (≈ 12.8 µM)
4 | Cc1cc(C)cc(-n2sc3ccccc3c2=O)c1 [Compound 2j] | 6.25 (≈ 24.5 µM) | 3.13 (≈ 12.3 µM) | 3.13 (≈ 12.3 µM) | 12.5 (≈ 49 µM) | 12.5 (≈ 49 µM) | 12.5 (≈ 49 µM) | 3.13 (≈ 12.3 µM) | 12.5 (≈ 49 µM) | 12.5 (≈ 49 µM) | 12.5 (≈ 49 µM) | 12.5 (≈ 49 µM) | 0.78 (≈ 3.05 µM) | 1.56 (≈ 6.11 µM)
5 | CC(C)c1cccc(-n2sc3ccccc3c2=O)c1 [Compound 2h] | 3.13 (≈ 11.6 µM) | 3.13 (≈ 11.6 µM) | 3.13 (≈ 11.6 µM) | 3.13 (≈ 11.6 µM) | 3.13 (≈ 11.6 µM) | 3.13 (≈ 11.6 µM) | 3.13 (≈ 11.6 µM) | 3.13 (≈ 11.6 µM) | 12.5 (≈ 46.4 µM) | 6.25 (≈ 23.2 µM) | 12.5 (≈ 46.4 µM) | 3.13 (≈ 11.6 µM) | 3.13 (≈ 11.6 µM)
6 | O=c1c2ccccc2sn1-c1cc(Br)cc(Br)c1 [Compound 2i] | 6.25 (≈ 16.2 µM) | 3.13 (≈ 8.13 µM) | 6.25 (≈ 16.2 µM) | 6.25 (≈ 16.2 µM) | 6.25 (≈ 16.2 µM) | 6.25 (≈ 16.2 µM) | 3.13 (≈ 8.13 µM) | 6.25 (≈ 16.2 µM) | 3.13 (≈ 8.13 µM) | 12.5 (≈ 32.5 µM) | 12.5 (≈ 32.5 µM) | 6.25 (≈ 16.2 µM) | 6.25 (≈ 16.2 µM)
